Read-outs that look alike come from different tables or passages of the source. Starred links: 1 amine or outer side, 2 acyl side, 3 side chain; linkers in the order of their positions; H or OH if unused. Non-standard residues stand in square brackets, D forms with d. Residues, ends and D or L forms follow the SMILES beside them. *: point of attachment. Phe(4-CH2SO3H) = N[C@@H](Cc1ccc(CS(=O)(=O)O)cc1)C(=O)O; C20 diacid = O=C(O)CCCCCCCCCCCCCCCCCCC(=O)*; sY = N[C@@H](Cc1ccc(OS(=O)(=O)O)cc1)C(=O)O; C18 diacid = O=C(O)CCCCCCCCCCCCCCCCC(=O)*; γGlu = O=C(O)[C@H](CCC(=O)[*:2])N[*:1]; βAsp = O=C(O)[C@H](CC(=O)[*:2])N[*:1]; NMeF = CN[C@@H](Cc1ccccc1)C(=O)O; dNMeD = CN[C@H](CC(=O)O)C(=O)O; Nle = CCCC[C@H](N)C(=O)O; AEEA = NCCOCCOCC(=O)O
Legend:
[1] = target: T1, human cholecystokinin-2 receptor (CCK-2R) (Homo sapiens, UniProt P32239); assay: In vitro receptor binding to CCK-2R, SPA displacement of [125I]-CCK-8s from plasma membranes
T1 construct: host or cells: 1321-N1 cells (plasma membranes prepared by Evotec AG Hamburg)
T1 sequence (P32239 1-447): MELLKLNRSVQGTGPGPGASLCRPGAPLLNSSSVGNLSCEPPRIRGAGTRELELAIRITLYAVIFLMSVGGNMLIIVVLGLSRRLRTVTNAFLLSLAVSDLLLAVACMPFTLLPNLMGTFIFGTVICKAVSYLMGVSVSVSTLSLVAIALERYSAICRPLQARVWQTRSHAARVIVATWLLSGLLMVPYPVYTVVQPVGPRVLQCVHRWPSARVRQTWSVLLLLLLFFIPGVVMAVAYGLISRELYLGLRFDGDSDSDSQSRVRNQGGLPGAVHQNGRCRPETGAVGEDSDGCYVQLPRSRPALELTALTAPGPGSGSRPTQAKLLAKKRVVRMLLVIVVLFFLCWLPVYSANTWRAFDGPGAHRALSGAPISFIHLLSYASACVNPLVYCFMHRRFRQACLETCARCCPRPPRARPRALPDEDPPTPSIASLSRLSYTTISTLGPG
Experimental: The in vitro binding affinity is a measure of the strength of attraction between a receptor and its ligand.
Displacement of radio ligand was measured as reduction in light emission from SPA beads.
The cells used in these assays were 1321-N1 cells stably expressing the CCK-1R or the CCK-2R (Perkin Elmer product numbers ES-530-A and ES-531-A, respectively see www.perkinelmer.com/Catalog/Product/ID/ES-530-A or -ES-531-A, respectively).
The cells were cultured in an incubator (95% RH (relative humidity), 5% (of standard atmospheric pressure) CO2, 37° C.) in cell culture medium (DMEM (Lonza catalogue BE-12-604F/U1), with 10% (v/v) Foetal Calf Serum (FCS, Gibco catalogue 16140-071), 1% (w/w) Sodium pyruvate (Gibco catalogue 11360-039), 500 μg/ml Geneticin® (G418) (Gibco catalogue 10131-027), 25 μg/ml Zeocin™ (Invitrogen catalogue R250-05), 1% (w/w) Pen/Strep (Gibco catalogue 15140-122)).
Plasma membranes were prepared by Evotec AG Hamburg by use of the ParrBomb (#4635, Parr Instrument Company). Cells were lysed with a lysis buffer (50 mM Tris, 2.5 mM EDTA, pH7) with added protease inhibitors (Complete Proteaseinhibitors EDTA-free (#05056489001, Roche), 1 tablet per 50 mL lysis buffer). The membrane fraction was separated by centrifugation. First, the cell lysate was centrifuged at 1000×g for 10 minutes at 4° C. The pellet was discarded and the supernatant was then centrifuged at 100.000×g for 30 minutes at 4° C. The supernatant was discarded and the pellet was re-suspended in 1 ml/5×10^8 cells ice cold membrane buffer (50 mM Tris, 320 mM Sucrose and Complete Proteaseinhibitors EDTA-free (#05056489001, Roche); pH7.4) and homogenised with dounce homogeniser. The protein concentration was determined using the Pierce™ BCA Protein Assay Kit according to kit manual, and the membrane preparation was adjust to the desired protein concentration with membrane buffer and aliquoted into pre-cooled tubes, snap-frozen in liquid nitrogen, and stored at −80° C.
CCK receptor binding assays were performed in 96-well Optiplates (Cat #6005290, PerkinElmer, Waltham, Mass., USA) in a total volume of 200 μl per well. CCK derivatives in 80% DMSO stock solutions of 800 μM were serially diluted […] in assay buffer (50 mM Tris/HCl, 4.5 mM MgCl2, […], 0.02% Tween 20, 0.25% ovalbumin, 0.1% pluronic F-68, pH 7.4) to final assay concentrations ranging from 10^−5 M (ten μM) to 10^−12 M (one pM).
Fifty μl of reference or test compounds were added to the Optiplates (using technical duplicates, i.e. two wells of each sample, one data point being the average of two wells), followed by addition of 150 μl of the mixture of SPA bead, radio ligand, and plasma membrane. The plates were sealed and incubated in the dark at +22° C. for 2 hours on a IKA MTS plate shaker (IKA-Werke D-79219 Staufen) set at 300 rpm and thereafter centrifuged at 1500 rpm for 10 minutes in a Heraeus Multifuge 3s centrifuge. SPA bead light emission was measured in a TopCount NXT (PerkinElmer) for 2 min/well after a delay of 60 min.
As a measure of compound affinity, calculations were performed in order to determine the half maximal inhibitory concentration (the IC50 value).
The data from the TopCounter were given as counts per minute (CPM). The CPM was plotted as a function of the concentration of compound. Dose-response curves were obtained, and IC50 values were calculated, by a nonlinear three-parameter logistic equation (log(agonist) vs response) with hillslope=−1, and shared top and bottom using the software programme GraphPad Prism v 6.0 (Graph Pad software, La Jolla, Calif., USA). The highest dose tested was 10^−5 M (1×10^7 pM).
The preference of a specific compound for the CCK-1 receptor, or the CCK-1R selectivity, may be defined as IC50 (CCK-2R)/IC50 (CCK-1R).
A minimum of three biological replicates was measured for each test compound on separate assay plates.

[2] = target: T1, human cholecystokinin-2 receptor (CCK-2R); assay: In vitro potency on CCK-2R, whole cell functional assay (IP1 accumulation, IP-One HTRF); type: cell-based
[3] = displacement of [125I]-CCK-8s, plasma membranes of 1321-N1 cells expressing CCK-2R, highest dose tested 1×10^7 pM, read-out: IC50 (CCK-2R)
[4] = 1321-N1 cells stably expressing CCK-2R, IP1 accumulation, highest dose tested 1×10^6 pM, read-out: EC50 (CCK-2R)

Compound | IC50 [1, 3] | EC50 [2, 4] | IC50 [1] | EC50 [2]
CC(C)C[C@H](NC(=O)[C@H](Cc1ccc(OS(=O)(=O)O)cc1)NC(=O)[C@H](CC(=O)O)NC(=O)COCCOCCNC(=O)COCCOCCNC(=O)CC[C@H](NC(=O)CCCCCCCCCCCCCCCCC(=O)O)C(=O)O)C(=O)NCC(=O)N[C@@H](Cc1c[nH]c2ccccc12)C(=O)N[C@@H](CC(C)C)C(=O)N(C)[C@H](CC(=O)O)C(=O)N(C)[C@@H](Cc1ccccc1)C(N)=O [Example 13, 2-[2-[2-[[2-[2-[2-[[(4S)-4-Carboxy-4-(17-carboxyheptadecanoylamino)butanoyl]amino]ethoxy]ethoxy]acetyl]amino]ethoxy]ethoxy]acetyl-Asp-sTyr-Leu-Gly-Trp-Leu-DMeAsp-MePhe-amide] |  |  | 420 nM | 79 nM
CC(C)C[C@H](NC(=O)[C@H](Cc1ccc(OS(=O)(=O)O)cc1)NC(=O)[C@H](CC(=O)O)NC(=O)COCCOCCNC(=O)COCCOCCNC(=O)CC[C@H](NC(=O)CCCCCCCCCCCCCCCCC(=O)O)C(=O)O)C(=O)NCC(=O)N[C@@H](Cc1c[nH]c2ccccc12)C(=O)N1CCC[C@H]1C(=O)N(C)[C@H](CC(=O)O)C(=O)N(C)[C@@H](Cc1ccccc1)C(N)=O [Example 15, 2-[2-[2-[[2-[2-[2-[[(4S)-4-Carboxy-4-(17-carboxyheptadecanoylamino)butanoyl]amino]ethoxy]ethoxy]acetyl]amino]ethoxy]ethoxy]acetyl-Asp-sTyr-Leu-Gly-Trp-Pro-DMeAsp-MePhe-amide] ({C18 diacid-γGlu-AEEA-AEEA}-D[sY]LGWP[dNMeD][NMeF]-NH2) |  |  | 1000 nM | 150 nM
CCCC[C@H](NC(=O)[C@H](Cc1c[nH]c2ccccc12)NC(=O)CNC(=O)[C@H](CCCCN)NC(=O)[C@H](Cc1ccc(OS(=O)(=O)O)cc1)NC(=O)[C@H](CC(=O)O)NC(=O)COCCOCCNC(=O)COCCOCCNC(=O)CC[C@H](NC(=O)CCCCCCCCCCCCCCCCC(=O)O)C(=O)O)C(=O)N(C)[C@H](CC(=O)O)C(=O)N(C)[C@@H](Cc1ccccc1)C(N)=O [Example 16, 2-[2-[2-[[2-[2-[2-[[(4S)-4-Carboxy-4-(17-carboxyheptadecanoylamino)butanoyl]amino]ethoxy]ethoxy]acetyl]amino]ethoxy]ethoxy]acetyl-Asp-sTyr-Lys-Gly-Trp-Nle-DMeAsp-MePhe-amide] ({C18 diacid-γGlu-AEEA-AEEA}-D[sY]KGW[Nle][dNMeD][NMeF]-NH2) |  |  | > 10000 nM | 
CCCC[C@H](NC(=O)[C@H](Cc1ccc(CS(=O)(=O)O)cc1)NC(=O)C[C@H](NC(=O)COCCOCCNC(=O)COCCOCCNC(=O)CC[C@H](NC(=O)CCCCCCCCCCCCCCCCC(=O)O)C(=O)O)C(=O)O)C(=O)NCC(=O)N[C@@H](Cc1c[nH]c2ccccc12)C(=O)N[C@@H](CCCC)C(=O)N(C)[C@H](CC(=O)O)C(=O)N(C)[C@@H](Cc1ccccc1)C(N)=O [Example 26, 2-[2-[2-[[2-[2-[2-[[(4S)-4-Carboxy-4-(17-carboxyheptadecanoylamino)butanoyl]amino]ethoxy]ethoxy]acetyl]amino]ethoxy]ethoxy]acetyl-bAsp-Phe(4-sulfomethyl)-Nle-Gly-Trp-Nle-DMeAsp-MePhe-amide] ({C18 diacid-γGlu-AEEA-AEEA-βAsp}-[Phe(4-CH2SO3H)][Nle]GW[Nle][dNMeD][NMeF]-NH2) | > 10000 nM | > 1000 nM |  | 
CCCC[C@H](NC(=O)[C@H](Cc1c[nH]c2ccccc12)NC(=O)CNC(=O)[C@H](CC(C)C)NC(=O)[C@H](Cc1ccc(OS(=O)(=O)O)cc1)NC(=O)[C@H](CC(=O)O)NC(=O)COCCOCCNC(=O)COCCOCCNC(=O)COCCOCCNC(=O)COCCOCCNC(=O)CC[C@H](NC(=O)CCCCCCCCCCCCCCCCC(=O)O)C(=O)O)C(=O)N(C)[C@H](CC(=O)O)C(=O)N(C)[C@@H](Cc1ccccc1)C(N)=O [Example 31, 2-[2-[2-[[2-[2-[2-[[2-[2-[2-[[2-[2-[2-[[(4S)-4-Carboxy-4-(17-carboxyheptadecanoylamino)butanoyl]amino]ethoxy]ethoxy]acetyl]amino]ethoxy]ethoxy]acetyl]amino]ethoxy]ethoxy]acetyl]amino]ethoxy]ethoxy]acetyl-Asp-sTyr-Leu-Gly-Trp-Nle-DMeAsp-MePhe-amide] | 480 nM | 110 nM |  | 

More lines, main results first:

IC50 [1, 3] | EC50 [2, 4] | Compound | IC50 [1] | EC50 [2]
380 nM | 46 nM | CCCC[C@H](NC(=O)[C@H](Cc1c[nH]c2ccccc12)NC(=O)CNC(=O)[C@H](CC(C)C)NC(=O)[C@H](Cc1ccc(OS(=O)(=O)O)cc1)NC(=O)[C@H](CC(=O)O)NC(=O)CC[C@H](NC(=O)COCCOCCNC(=O)COCCOCCNC(=O)CC[C@H](NC(=O)CCCCCCCCCCCCCCCCC(=O)O)C(=O)O)C(=O)O)C(=O)N(C)[C@H](CC(=O)O)C(=O)N(C)[C@@H](Cc1ccccc1)C(N)=O [Example 32, (4S)-4-Carboxy-4-[[2-[2-[2-[[2-[2-[2-[[(4S)-4-carboxy-4-(17-carboxyheptadecanoylamino)butanoyl]amino]ethoxy]ethoxy]acetyl]amino]ethoxy]ethoxy]acetyl]amino]butanoyl-Asp-sTyr-Leu-Gly-Trp-Nle-DMeAsp-MePhe-amide] |  | 
430 nM |  | CCCC[C@H](NC(=O)[C@H](Cc1c[nH]c2ccccc12)NC(=O)CNC(=O)[C@H](CC(C)C)NC(=O)[C@H](Cc1ccc(OS(=O)(=O)O)cc1)NC(=O)[C@H](CCC(=O)O)NC(=O)COCCOCCNC(=O)COCCOCCNC(=O)CC[C@H](NC(=O)CCCCCCCCCCCCCCCCCCC(=O)O)C(=O)O)C(=O)N(C)[C@H](CC(=O)O)C(=O)N(C)[C@@H](Cc1ccccc1)C(N)=O [Example 37, 2-[2-[2-[[2-[2-[2-[[(4S)-4-Carboxy-4-(19-carboxynonadecanoylamino)butanoyl]amino]ethoxy]ethoxy]acetyl]amino]ethoxy]ethoxy]acetyl-Glu-sTyr-Leu-Gly-Trp-Nle-DMeAsp-MePhe-amide] ({C20 diacid-γGlu-AEEA-AEEA}-E[sY]LGW[Nle][dNMeD][NMeF]-NH2) |  | 
340 nM |  | CCCC[C@H](NC(=O)[C@H](Cc1c[nH]c2ccccc12)NC(=O)CNC(=O)[C@@H](NC(=O)[C@H](Cc1ccc(OS(=O)(=O)O)cc1)NC(=O)[C@H](CC(=O)O)NC(=O)COCCOCCNC(=O)COCCOCCNC(=O)CC[C@H](NC(=O)CCCCCCCCCCCCCCCCC(=O)O)C(=O)O)[C@@H](C)CC)C(=O)N(C)[C@H](CC(=O)O)C(=O)N(C)[C@@H](Cc1ccccc1)C(N)=O [Example 47, 2-[2-[2-[[2-[2-[2-[[(4S)-4-Carboxy-4-(17-carboxyheptadecanoylamino)butanoyl]amino]ethoxy]ethoxy]acetyl]amino]ethoxy]ethoxy]acetyl-Asp-sTyr-Ile-Gly-Trp-Nle-DMeAsp-MePhe-amide] ({C18 diacid-γGlu-AEEA-AEEA}-D[sY]IGW[Nle][dNMeD][NMeF]-NH2) |  | 

Source: patent US20170008928A1, “NOVEL PEPTIDES AND PEPTIDE DERIVATIVES AND USES THEREOF” (Novo Nordisk A/S, priority 2015, published 2017)
